Data taken from article PMC8741257, “Identification of novel non-toxic and anti-angiogenic α-fluorinated chalcones as potent colchicine binding site inhibitors” (Journal of Enzyme Inhibition and Medicinal Chemistry, 2022).
Read-outs that look alike come from different tables or passages of the source.

Legend:
[1] = test system: U937 (human leukaemia cells); assay: Antiproliferative activity (CCK-8 assay); type: cell-based; conditions: U-937, mean ± SD, three separated experiments, 72 h
Procedure: (§1) MCF-7, MGC-803, Hela and HepG-2 cell lines were cultured in a base medium (90% DMEM and 10% FBS), A549 and U937 were cultured in a base medium (90% PRMI-1640 and 10% FBS) at 37 °C, 5% CO2 and a saturated humidity atmosphere. All the mediums were supplemented with 10% FBS and 1% […]/streptomycin (all cells were purchased from Shanghai Institutes for Biological Sciences, Chinese Academy of Sciences, Shanghai, China).
(§2) MGC-803 cells were collected and seeded into 96 well plates at a density of 8000/well. The mediums containing drugs and cell suspension were added into the well. The cells were incubated in 5% CO2 incubator at 37 °C for 72 h. Each well was added 10 µL CCK8 solution, and the incubation time was 3–4 h. The absorbance value at 450 nm was measured by microplate reader. Data are calculated with GraphPad Prism5 software.

[2] = test system: MCF-7 (human breast cancer cells); assay: Antiproliferative activity (SRB assay); type: cell-based; conditions: MCF7, mean ± SD, three separated experiments, 72 h
Procedure: as §1
(§3) A549, MGC-803, MCF-7, HepG2 and Hela cells were seeded at the appropriate cell line density (3 × 10^3 to 4 × 10^3 cells/well). The cells were then incubated at 37 °C for 24 h in a humidified 5%CO2 in 96-well plates prior to experiments. After a further 72 h of incubation, cell proliferation was quantified with SRB ([…]) to determine the number of surviving cells. The absorbance at 560 nm was measured by microplate. The experiment was repeated three times, and the data were listed in the form of mean and standard deviation.

[3] = test system: Hela (human cervical cancer cells); assay: Antiproliferative activity (SRB assay); type: cell-based; conditions: mean ± SD, three separated experiments, 72 h
Procedure: as §1, §3

[4] = test system: HepG2 (human liver cancer cells); assay: Antiproliferative activity (SRB assay); type: cell-based; conditions: mean ± SD, three separated experiments, 72 h
Procedure: as §1, §3

[5] = test system: A549 (human non-small cell lung cancer); assay: Antiproliferative activity (SRB assay); type: cell-based; conditions: mean ± SD, three separated experiments, 72 h
Procedure: as §1, §3

[6] = test system: MGC-803 (human gastric cancer cells); assay: Antiproliferative activity (SRB / CCK-8 assay); type: cell-based; conditions: mean ± SD
Procedure: as §1, §3, §2

[7] = test system: six human cancer cell lines (MCF-7, MGC-803, HepG2, Hela, A549, U937); assay: Antiproliferative activity, summary over the tested cancer cell lines; type: cell-based
Procedure: as §3, §2

[8] = test system: THP-1-derived macrophages; assay: Growth inhibition of normal human cells; type: cell-based; conditions: Macrophage, triplicate, mean ± SD
Procedure: (§4) The effect of compound 4c on three types of normal human cell lines including LO2 (human hepatocyte cells), 293 T (human embryonic kidney cell) and THP-1-derived macrophages was then determined.

[9] = test system: 293 T (human embryonic kidney cell); assay: Growth inhibition of normal human cells; type: cell-based; conditions: HEK-293T, triplicate, mean ± SD
Procedure: as §4

[10] = test system: LO2 (human hepatocyte cells); assay: Growth inhibition of normal human cells; type: cell-based; conditions: triplicate, mean ± SD
Procedure: as §4

[11] = three separated experiments, 72 h
[12] = tested cancer cell lines, read-out: IC50, anti-proliferative activity

Structure (SMILES) | IC50 [1] | IC50 [2] | IC50 [3] | IC50 [4] | IC50 [5] | IC50 [6, 11] | melting point | IC50 [7, 12] | IC50 ([7]; several tested cancer cell lines, range, read-out: IC50, inhibitory effect) | IC50 [8] | IC50 [9] | IC50 [10] | IC50 ([6]; Table 2, triplicate)
COc1cc(C(=O)/C(F)=C/c2cc3ccccc3o2)cc(OC)c1OC [4o, (Z)-3-(benzofuran-2-yl)-2-fluoro-1–(3,4,5-trimethoxyphenyl)prop-2-en-1-one] | > 5000 nM | 4408 ± 43 nM | > 5000 nM | > 5000 nM | > 5000 nM | 3301 ± 26 nM | 115.5 to 116.6 °C | – | – | – | – | – | –
COc1cc(C(=O)/C(F)=C/c2nc3ccccc3[nH]2)cc(OC)c1OC [4j, (Z)-3-(1H-benzo[d]imidazol-2-yl)-2-fluoro-1–(3,4,5-trimethoxyphenyl)prop-2-en-1-one] | > 5000 nM | > 5000 nM | > 5000 nM | > 5000 nM | > 5000 nM | > 5000 nM | 178.9 to 180.9 °C | – | – | – | – | – | –
COc1cc(C(=O)/C(F)=C/c2cc3c(cc2[N+](=O)[O-])OCO3)cc(OC)c1OC [4r, (Z)-2-fluoro-3–(6-nitrobenzo[d][1,3]dioxol-5-yl)-1–(3,4,5-trimethoxyphenyl)prop-2-en-1-one] | > 5000 nM | > 5000 nM | > 5000 nM | > 5000 nM | > 5000 nM | > 5000 nM | 174.7 to 176.6 °C | – | – | – | – | – | –
COc1cc(C(=O)/C(F)=C/c2ccc3sc4ccccc4c3c2)cc(OC)c1OC [4s, (Z)-3-(dibenzo[b, d]thiophen-2-yl)-2-fluoro-1–(3,4,5-trimethoxyphenyl)prop-2-en-1-one] | > 5000 nM | > 5000 nM | > 5000 nM | > 5000 nM | > 5000 nM | > 5000 nM | 142.6 to 143.8 °C | – | – | – | – | – | –
COc1cc(C(=O)/C(F)=C/c2coc3ccccc23)cc(OC)c1OC [4t, (Z)-3-(benzofuran-3-yl)-2-fluoro-1–(3,4,5-trimethoxyphenyl)prop-2-en-1-one] | 125 ± 2 nM | 1293 ± 7 nM | 203 ± 6 nM | 1063 ± 8 nM | 1020 ± 64 nM | – | 103.7 to 104.8 °C | – | – | – | – | – | –
COc1cc(C(=O)/C(F)=C/c2oc3ccccc3c2C)cc(OC)c1OC [4p, (Z)-2-fluoro-3–(3-methylbenzofuran-2-yl)-1–(3,4,5-trimethoxyphenyl)prop-2-en-1-one] | > 5000 nM | > 5000 nM | > 5000 nM | > 5000 nM | > 5000 nM | > 5000 nM | 117.4 to 118.8 °C | – | – | – | – | – | –
COc1cc(C(=O)/C(F)=C/c2cc3ccccc3s2)cc(OC)c1OC [4h, (Z)-3-(benzo[b]thiophen-2-yl)-2-fluoro-1–(3,4,5-trimethoxyphenyl)prop-2-en-1-one] | 606 ± 26 nM | 2101 ± 3 nM | 2493 ± 2 nM | 5976 ± 4 nM | 2570 ± 159 nM | 1897 ± 1 nM | 122.2 to 123.6 °C | – | – | – | – | – | –
COC(=O)c1cccc2[nH]cc(/C=C(\F)C(=O)c3cc(OC)c(OC)c(OC)c3)c12 [4f, Methyl(Z)-3–(2-fluoro-3-oxo-3–(3,4,5-trimethoxyphenyl)prop-1-en-1-yl)-1H-indole-4-carboxylate] | > 5000 nM | > 5000 nM | > 5000 nM | > 5000 nM | > 5000 nM | > 5000 nM | 118 to 119 °C | > 5000 nM | – | – | – | – | –
COc1cc(C(=O)/C(F)=C/c2sc3ccccc3c2C)cc(OC)c1OC [4i, (Z)-2-fluoro-3–(3-methylbenzo[b]thiophen-2-yl)-1–(3,4,5-trimethoxyphenyl)prop-2-en-1-one] | > 5000 nM | > 5000 nM | > 5000 nM | > 5000 nM | > 5000 nM | > 5000 nM | 140.5 to 143.4 °C | – | – | – | – | – | –
COC(=O)c1ccc2c(/C=C(\F)C(=O)c3cc(OC)c(OC)c(OC)c3)c[nH]c2c1 [4a, Methyl(Z)-3–(2-fluoro-3-oxo-3–(3,4,5-trimethoxyphenyl)prop-1-en-1-yl)-1H-indole-6-carboxylate] | > 5000 nM | > 5000 nM | > 5000 nM | > 5000 nM | > 5000 nM | > 5000 nM | 207.3 to 209.1 °C | > 5000 nM | – | – | – | – | –
COc1cc(C(=O)/C(F)=C/c2cccc3c2OCO3)cc(OC)c1OC [4k, (Z)-3-(benzo[d][1,3]dioxol-4-yl)-2-fluoro-1–(3,4,5-trimethoxyphenyl)prop-2-en-1-one] | 806 ± 24 nM | 441 ± 1 nM | 565 ± 12 nM | 3298 ± 7 nM | > 5000 nM | 166 ± 4 nM | 148.1 to 149.1 °C | – | – | – | – | – | –
COc1cc(C(=O)/C(F)=C/c2ccc3c(c2)CCO3)cc(OC)c1OC [4n, (Z)-3–(2,3-dihydrobenzofuran-5-yl)-2-fluoro-1–(3,4,5-trimethoxyphenyl)prop-2-en-1-one] | 31 ± 1 nM | 128 ± 4 nM | 42 ± 1 nM | 116 ± 1 nM | 364 ± 3 nM | 43 ± 1 nM | 100.8 to 103.7 °C | – | 31 to 364 nM | – | – | – | –
COc1cc(C(=O)/C(F)=C/c2csc3ccccc23)cc(OC)c1OC [4g, (Z)-3-(benzo[b]thiophen-3-yl)-2-fluoro-1–(3,4,5-trimethoxyphenyl)prop-2-en-1-one] | 456 ± 13 nM | 121 ± 12 nM | 72 ± 1 nM | 199 ± 6 nM | 505 ± 10 nM | 21 ± 7 nM | 118 to 119 °C | – | – | – | – | – | –
COc1cc(C(=O)/C(F)=C/c2c(-c3ccccc3)[nH]c3ccccc23)cc(OC)c1OC [4b, (Z)-2-fluoro-3–(2-phenyl-1H-indol-3-yl)-1–(3,4,5-trimethoxyphenyl)prop-2-en-1-one] | 562 ± 20 nM | 551 ± 22 nM | 685 ± 2 nM | 883 ± 41 nM | 3635 ± 1 nM | 202 ± 23 nM | 150.7 to 152.4 °C | – | – | – | – | – | –
COc1cc(C(=O)/C(F)=C/c2c(C)[nH]c3ccccc23)cc(OC)c1OC [4e, (Z)-2-fluoro-3–(2-methyl-1H-indol-3-yl)-1–(3,4,5-trimethoxyphenyl)prop-2-en-1-one] | 123 ± 11 nM | 551 ± 14 nM | 101 ± 31 nM | 1385 ± 1 nM | > 5000 nM | 72 ± 2 nM | 204 to 206.4 °C | – | – | – | – | – | –
COc1cc(C(=O)/C(F)=C/c2cc3c(cc2Br)OCO3)cc(OC)c1OC [4l, (Z)-3–(6-bromobenzo[d][1,3]dioxol-5-yl)-2-fluoro-1–(3,4,5-trimethoxyphenyl)prop-2-en-1-one] | > 5000 nM | > 5000 nM | > 5000 nM | > 5000 nM | > 5000 nM | > 5000 nM | 156.3 to 157.8 °C | – | – | – | – | – | –
COc1ccc(/C=C\c2cc(OC)c(OC)c(OC)c2)cc1O [CA-4, Combretastatin A4, reference compound] | 0.3 nM | – | 8 ± 1 nM | 7 ± 1 nM | 5 ± 1 nM | 2 ± 1 nM | – | – | – | 7 ± 1 nM | 12 ± 2 nM | 5 ± 1 nM | 2 ± 1 nM
COc1cc(C(=O)/C(F)=C/c2ccc3oc4ccccc4c3c2)cc(OC)c1OC [4q, (Z)-3-(dibenzo[b,d]furan-2-yl)-2-fluoro-1–(3,4,5-trimethoxyphenyl)prop-2-en-1-one] | > 5000 nM | > 5000 nM | > 5000 nM | > 5000 nM | > 5000 nM | > 5000 nM | 114 to 116.4 °C | – | – | – | – | – | –
COC(=O)c1ccc2[nH]cc(/C=C(\F)C(=O)c3cc(OC)c(OC)c(OC)c3)c2c1 [4d, Methyl(Z)-3–(2-fluoro-3-oxo-3–(3,4,5-trimethoxyphenyl)prop-1-en-1-yl)-1H-indole-5-carboxylate] | > 5000 nM | > 5000 nM | > 5000 nM | > 5000 nM | > 5000 nM | > 5000 nM | 80.4 to 81.8 °C | > 5000 nM | – | – | – | – | –
COc1cc(C(=O)/C(F)=C/c2ccc3occc3c2)cc(OC)c1OC [4m, (Z)-3-(benzofuran-5-yl)-2-fluoro-1–(3,4,5-trimethoxyphenyl)prop-2-en-1-one] | 710 ± 27 nM | 1002 ± 7 nM | 925 ± 7 nM | 1407 ± 14 nM | > 5000 nM | 362 ± 123 nM | 94.1 to 94.2 °C | – | – | – | – | – | –
